Test results from US20260166057A1, “1,3,5(10),16-ESTRATETRAEN-3-YL ACETATE FOR USE IN IMPROVING PSYCHOMOTOR OR COGNITIVE PERFORMANCE” (priority 2023, published 2026).

Tests used:
mice = conditions: forced swim test in mice; imipramine, desipramine, fluoxetine, paroxetine, escitalopram, reboxetine; cited from earlier work
[1] = at night during extended wakefulness; cited from earlier work
healthy male volunteers [2] = assay: Reaction Time Test (psychomotor performance) of the RTTET in mentally fatigued men; type: in vivo, human; conditions: relative to placebo, all three non-control tests
healthy male volunteers [3] = assay: Time Estimation Test (cognitive performance) of the RTTET in mentally fatigued men; conditions: midnight test, relative to placebo
US adults = conditions: caffeine intake; cited from earlier work
depressed patients = conditions: cited from earlier work
[4] = adjunctive therapy for acute depressive episodes, unipolar and bipolar; cited from earlier work
[5] = at certain dosages; cited from earlier work

Cn1c(=O)c2c(ncn2C)n(C)c1=O [caffeine]
antidepressant-like activity of six typical antidepressants (mice): enhancement | reaction time and cognitive performance [1]: improved | number of errors (healthy male volunteers [2]; isochronous stimuli): significantly decrease | number of errors (healthy male volunteers [2]; stochastic stimuli): significantly decrease | Time Estimation test improvement (healthy male volunteers [3]): statistically significant | depression symptoms measured by the PHQ-9 test (US adults): reduces depression symptoms | depressive scores (antidepressant action) (depressed patients; chronic supplementation, 60 mg, subjects taking escitalopram): produced rapid antidepressant action by reduction of depressive scores | cognitive performance (depressed patients; low doses, depressed patients): improved

NC(=O)C[S+]([O-])C(c1ccccc1)c1ccccc1 (centres unmarked) [modafinil]
overall depression scores, remission rates and fatigue [4]: improves | ADHD symptoms [5]: significantly improved | attention [5]: significantly improved
